In publication PMC9599613 (Biomolecules, 2022):

Key:
[1] = target: T1, acetylcholinesterase (AChE) (Electrophorus electricus, UniProt O42275); test: Anticholinesterase assay (Ellman's), AChE inhibition; type: biochemical
T1 construct: acetylcholinesterase (AChE, obtained from Electrophorus electricus); from tissue
Method: This enzyme method relied on the hydrolytic of acetyl cholinethioiodide (ATChI) by acetylcholinesterase and butyrylthiocholine iodide (BTchI) by butyrylcholinesterase. As a result of this breakdown, 5-thio-2-nitrobenoate anions formed. […] The absorption was measured with a spectrophotometer, as per the protocols. […] An amount of 0.1 M phosphate buffer (8.0 ± 0.1 pH) solution was prepared, whose final pH was adjusted by using the KOH solution.
In this assay, 50 µL enzyme solution and 50 µL DTNB reagent were added to 1 mL test samples in a cuvette and then incubated at 30 °C for 15 min. Afterward, a 50 µL substrate solution was added to the mixture.

human recombinant 5-LOX = target: T2, human recombinant 5-LOX (Homo sapiens, UniProt P09917); test: biochemical
T2 sequence (P09917 1-674): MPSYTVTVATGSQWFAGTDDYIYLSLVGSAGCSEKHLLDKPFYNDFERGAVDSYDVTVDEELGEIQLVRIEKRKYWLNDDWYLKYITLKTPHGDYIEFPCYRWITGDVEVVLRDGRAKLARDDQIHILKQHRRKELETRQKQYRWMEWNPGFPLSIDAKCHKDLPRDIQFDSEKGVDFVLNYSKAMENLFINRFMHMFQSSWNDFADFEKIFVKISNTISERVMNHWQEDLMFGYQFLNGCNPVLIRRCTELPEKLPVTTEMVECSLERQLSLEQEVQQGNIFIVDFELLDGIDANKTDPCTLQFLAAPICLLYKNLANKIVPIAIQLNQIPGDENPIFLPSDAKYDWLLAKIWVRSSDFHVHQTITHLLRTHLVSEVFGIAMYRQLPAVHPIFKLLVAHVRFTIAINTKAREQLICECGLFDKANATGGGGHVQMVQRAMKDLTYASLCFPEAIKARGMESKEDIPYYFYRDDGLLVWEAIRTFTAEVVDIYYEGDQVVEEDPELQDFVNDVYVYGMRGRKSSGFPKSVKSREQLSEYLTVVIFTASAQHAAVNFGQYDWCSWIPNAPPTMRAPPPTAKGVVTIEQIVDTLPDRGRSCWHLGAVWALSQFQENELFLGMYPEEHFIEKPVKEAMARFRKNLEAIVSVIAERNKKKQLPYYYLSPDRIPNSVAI
Method: The lipoxygenase assay on our test compounds was performed by utilizing human recombinant 5-LOX [65]. […] The enzyme solution with a concentration of 10,000 U/mL was prepared, whereas 80 mM linoleic acid solution was used as a substrate. Solutions were prepared in a phosphate buffer (50 mM) with a pH of 6.3, which was also utilized as the blank. To start, various concentrations of our test samples were dissolved in 0.25 mL of the buffer, to which 0.25 mL enzyme solution was added and incubated at 25 °C for 5 min. Afterward, the substrate solution (0.1 mL) was added to the mixture and shaken well. […] In this assay, the standard drug was montelukast, and using the following formula, the % inhibitions were calculated: % enzyme inhibition=X−X1/X×100 where X = absorbance of the negative control (with no test sample), and X1 = absorbance of the test compound.

[2] = ABTS free radical scavenging assay
Method: The antioxidant potentials of isolated phytosteroids 1 and 2 were also determined using the ABTS (2,2′-azino-bis(3-ethylbenzothiazoline-6-sulfonic acid)) standard method. […] This created free radicals within the sample. Afterward, the addition of 50% methanol and the ABTS radical cation solution were adjusted to pH 7.4 by dilution with the phosphate buffer (pH 7.4). […] The positive control was ascorbic acid, and the assay was repeated in triplicate. The percent radical scavenging potential of the test compounds was calculated using the standard reported formula.

T1 sequence (O42275 24-633): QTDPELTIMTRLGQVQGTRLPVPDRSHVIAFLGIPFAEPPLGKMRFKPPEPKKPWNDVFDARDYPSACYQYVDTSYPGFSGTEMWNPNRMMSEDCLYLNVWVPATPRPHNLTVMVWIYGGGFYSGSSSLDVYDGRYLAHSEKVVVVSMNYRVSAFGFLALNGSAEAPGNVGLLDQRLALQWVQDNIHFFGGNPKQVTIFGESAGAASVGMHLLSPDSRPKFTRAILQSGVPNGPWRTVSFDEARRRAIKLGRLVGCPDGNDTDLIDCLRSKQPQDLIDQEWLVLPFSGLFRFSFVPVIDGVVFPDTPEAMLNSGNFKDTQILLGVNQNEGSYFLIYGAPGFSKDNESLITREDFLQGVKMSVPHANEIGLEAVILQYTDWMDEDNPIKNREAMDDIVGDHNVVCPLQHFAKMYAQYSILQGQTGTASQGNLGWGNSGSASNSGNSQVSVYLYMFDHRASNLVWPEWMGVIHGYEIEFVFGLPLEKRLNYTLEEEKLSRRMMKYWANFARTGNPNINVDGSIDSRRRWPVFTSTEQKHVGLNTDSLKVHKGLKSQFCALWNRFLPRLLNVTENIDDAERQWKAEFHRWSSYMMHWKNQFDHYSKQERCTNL

In the case of `CCC(CCC(C)C1CCC2C3CCC4=CC(=O)CCC4(C)C3CCC12C)C(C)C` (stereo not shown) [Compound 2, 17-(5-ethyl-6-methylheptan-2-yl)-10,13-dimethyl-1,2,6,7,8,9,10,11,12,13,14,15,16,17-tetradecahydro-3H-cyclopenta[a]phenanthren-3-one], the IC50 [1] is reported as 35.2 µM, the “AChE inhibition (%)” value ([1]; 62.5 μg/mL) is reported as 58.12 ± 0.34 % and the “AChE inhibition (%)” value ([1]; 125 μg/mL) is reported as 63.47 ± 0.49 %. For the same compound, the “AChE inhibition (%)” value ([1]; 250 μg/mL) was 68.75 ± 0.14 %, the “AChE inhibition (%)” value ([1]; 500 μg/mL) was 75.59 ± 0.30 % and the “AChE inhibition (%)” value ([1]; 1000 μg/mL) was 80.85 ± 0.18 %. It also gave an IC50 (human recombinant 5-LOX; read-out: 5-LOX IC50 (converted)) of 21.1 µM, an inhibition at 62.5 µg/mL (human recombinant 5-LOX; read-out: % 5-LOX Inhibition) of 63.47 ± 0.56% and an inhibition at 125 µg/mL (human recombinant 5-LOX; read-out: % 5-LOX Inhibition) of 67.74 ± 0.61%. The inhibition at 250 µg/mL (human recombinant 5-LOX; read-out: % 5-LOX Inhibition) was 73.67 ± 0.61%, the inhibition at 500 µg/mL (human recombinant 5-LOX; read-out: % 5-LOX Inhibition) was 78.76 ± 0.58% and the inhibition at 1000 µg/mL (human recombinant 5-LOX; read-out: % 5-LOX Inhibition) was 85 ± 0.3%. For the same compound, the “ABTS IC50” value [2] was 185.83 µg/mL, the “Percent ABTS Activity (mean ± SEM)” value ([2]; 62.5 μg/mL) was 41.34 ± 1.01 % and the “Percent ABTS Activity (mean ± SEM)” value ([2]; 125 μg/mL) was 46.73 ± 0.78 %. For the same compound, the “Percent ABTS Activity (mean ± SEM)” value ([2]; 250 μg/mL) was 51.37 ± 1.65 %, the “Percent ABTS Activity (mean ± SEM)” value ([2]; 500 μg/mL) was 57.85 ± 0.97 % and the “Percent ABTS Activity (mean ± SEM)” value ([2]; 1000 μg/mL) was 65.17 ± 0.72 %. For the same compound, the “Percent ABTS Activity (mean ± SEM)” value ([2]; 1000 μg/mL, listed as compound 2) was 65.17 ± 0.72%.
